Some test systems named below: HCT-116; KM12; OVCAR-5; UACC-62; NCI-H522; HL-60; OVCAR-4; SW-620; A498; UO-31; SN12C; HCT-15; HOP-92; SNB-75; SK-MEL-28; CCRF-CEM; OVCAR-8; Malme-3M; A549; SF-539.
Test in all cases: NCI-60 cell line screen, 48 h

Structures are written as SMILES.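 Growth conditions: 96-well plates. Treatment: test compound, 48 hours, 5 concentrations. Analysis: linear interpolation between bracketing concentrations; unreached endpoints set to highest concentration. GI50: concentration for 50% inhibition of growth.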 The source made the active and inactive calls. Rule as the data show it: active = GI50 up to about 1.1 µM and inactive = higher.

Regarding `CCCC[C@H]1[C@@H](OCOc2ccccc2)COC(=O)N1[C@H](C)c1ccccc1`, the GI50 is 7.62 µM (inactive) in the test on HCT-116; 12.9 µM (inactive) with KM12; 17.3 µM (inactive) in the test on OVCAR-5; 10.3 µM (inactive) in the test with UACC-62; 10.3 µM (inactive) with NCI-H522; 18 µM (inactive) in the test with HL-60. Besides, the GI50 in the test on OVCAR-4 is 10.3 µM (inactive); in the test with SW-620 it was 32.1 µM (inactive); in the test with A498, 12.9 µM (inactive); in the test with UO-31 it was 11.8 µM (inactive); in the test with SN12C, 10.2 µM (inactive); with HCT-15 it was 15.9 µM. Also, the GI50 in the test on HOP-92 is 18.1 µM (inactive); in the test on SNB-75, 10.8 µM (inactive); in the test on SK-MEL-28, 21.6 µM (inactive); in the test on CCRF-CEM, 16.8 µM (inactive); in the test with OVCAR-8, > 49.2 µM (inactive); with Malme-3M, 15.7 µM (inactive). Also, the GI50 with A549 is 8.79 µM (inactive).
Regarding `COc1cccc(N2C(=O)C3c4[nH]c5ccc(C)cc5c4C4CCC(C(C)(C)C)CC4C3C2=O)c1` (configuration not stated), the GI50 is 2.86 µM (inactive) in the test with SF-539; 2.17 µM (inactive) in the test on HCT-116; 3.52 µM (inactive) in the test with KM12; 3.3 µM (inactive) with OVCAR-5; > 10 µM (inactive) in the test on UACC-62; 1.87 µM (inactive) in the test on NCI-H522. Besides, the GI50 in the test with HL-60 was 1.95 µM (inactive); with OVCAR-4, 6.27 µM (inactive); in the test with SW-620, 3.88 µM (inactive); with A498, > 10 µM (inactive); with UO-31, 2.8 µM (inactive); with SN12C it was 3.15 µM (inactive). Further, the GI50 was 6.35 µM in the test with HCT-15; 2.51 µM (inactive) with SNB-75; 4.61 µM (inactive) in the test with SK-MEL-28; 2.77 µM (inactive) in the test with CCRF-CEM; 2.58 µM (inactive) with OVCAR-8; > 10 µM (inactive) in the test on Malme-3M. Moreover, the GI50 in the test on A549 was 3.38 µM (inactive).
On to `COC1C(O)CC(OC2CC(Oc3cc4cc5c(c(O)c4c(O)c3C)C(=O)[C@@H](OC3CC(OC4CC(OC6CC(C)(O)C(OC(C)=O)C(C)O6)C(O)C(C)O4)C(O)C(C)O3)[C@H]([C@H](OC)C(=O)[C@@H](O)[C@@H](C)O)C5)OC(C)C2OC(C)=O)OC1C` (some centres not stated) [CHROMOMYCIN], for which the GI50 in the test with SF-539 was 0.00326 µM (active); with HCT-116, 0.00333 µM (active); in the test on KM12 it was < 0.01 µM (active); with OVCAR-5, < 0.01 µM (active); with UACC-62, 0.00295 µM (active); in the test on NCI-H522, 0.00366 µM (active). The GI50 was 0.0127 µM (active) in the test on HL-60; < 0.01 µM (active) in the test on OVCAR-4; < 0.01 µM (active) in the test with SW-620; 0.0038 µM (active) with A498; 0.0614 µM (active) in the test on UO-31; 0.0101 µM (active) in the test on SN12C. Moreover, the GI50 in the test with HCT-15 is 0.0138 µM; in the test with HOP-92 it was < 0.01 µM (active); in the test on SNB-75 it was < 0.01 µM (active); in the test on SK-MEL-28, 0.00368 µM (active); in the test with CCRF-CEM, < 0.01 µM (active); in the test on OVCAR-8, < 0.01 µM (active). For the same compound, the values for the GI50 with Malme-3M and in the test with A549 were 0.00328 µM (active) and 0.00382 µM (active), respectively.
As for `CC1=CC2c3cccc4[nH]cc(c34)CC2N(C)C1` (configuration not stated), the GI50 in the test on SF-539 was > 100 µM (inactive); in the test with HCT-116, > 100 µM (inactive); with KM12 it was > 100 µM (inactive); in the test with OVCAR-5, > 100 µM (inactive); with UACC-62, > 91.8 µM (inactive); with NCI-H522, > 100 µM (inactive). Besides, the GI50 was 31.6 µM (inactive) with HL-60; > 100 µM (inactive) in the test on OVCAR-4; > 100 µM (inactive) in the test with SW-620; > 76.6 µM (inactive) in the test on A498; 11.9 µM (inactive) with UO-31; > 89.5 µM (inactive) in the test with SN12C. The GI50 in the test on HCT-15 was over 100 µM; in the test on HOP-92 it was 24.4 µM (inactive); in the test with SNB-75 it was 38.5 µM (inactive); in the test on SK-MEL-28, > 100 µM (inactive); in the test on CCRF-CEM, > 91.6 µM (inactive); in the test on OVCAR-8, > 100 µM (inactive). For the same compound, the GI50 was 30.3 µM (inactive) with Malme-3M and > 100 µM (inactive) with A549.
Turning to `CC1=C[C@]2(CC(C)C3C(CC4(C)C5CCC6C(C)(C)C(=O)CC[C@@]67C[C@@]57CC[C@]34C)O2)OC1=O` (some centres not stated), the GI50 is 13.8 µM (inactive) in the test with SF-539; 3.33 µM (inactive) in the test on HCT-116; 18.9 µM (inactive) in the test on KM12; 2.21 µM (inactive) in the test with OVCAR-5; 0.968 µM (active) in the test on HL-60; 19 µM (inactive) in the test on OVCAR-4. The GI50 is 12.6 µM (inactive) in the test with SW-620; 23.7 µM (inactive) in the test with A498; 41.1 µM (inactive) with SN12C; 7.64 µM in the test with HCT-15; 18.1 µM (inactive) with HOP-92; 16.8 µM (inactive) with SNB-75. The GI50 in the test on SK-MEL-28 was 18.6 µM (inactive); with CCRF-CEM, > 100 µM (inactive); in the test on OVCAR-8 it was 25.2 µM (inactive); in the test on Malme-3M, 44.4 µM (inactive); in the test with A549 it was 16.6 µM (inactive).
With `CC(/C=N/N=C(N)N)=N\N=C(N)N`, the GI50 in the test on SF-539 was 8.04 µM (inactive); with HCT-116, 6.41 µM (inactive); in the test on KM12 it was 2.83 µM (inactive); in the test on UACC-62, 46.6 µM (inactive); in the test with NCI-H522, 29.7 µM (inactive); with HL-60 it was 7.24 µM (inactive). Also, the GI50 in the test with OVCAR-4 is 3.4 µM (inactive); in the test with SW-620, 7.21 µM (inactive); in the test with A498, 253 µM (inactive); in the test on UO-31, 9.82 µM (inactive); in the test with SN12C, 106 µM (inactive); in the test with HCT-15, 94 µM. Besides, the GI50 with HOP-92 was 3.43 µM (inactive); with SNB-75, 25.2 µM (inactive); in the test with SK-MEL-28, 64.6 µM (inactive); in the test with CCRF-CEM it was 4.73 µM (inactive); with OVCAR-8, 4.55 µM (inactive); with Malme-3M, 33.9 µM (inactive). In the test on A549, the GI50 was 61.9 µM (inactive).
Consider `COc1cc(C(C)O)c(S(=O)(=O)CC(C)O)nn1` (configuration not stated), for which the GI50 with SF-539, with HCT-116, with KM12, in the test on OVCAR-5, with UACC-62 and in the test with NCI-H522 was > 100 µM (inactive) in each case. The GI50 in the test on HL-60, in the test on OVCAR-4, in the test with SW-620, with A498, in the test with UO-31 and in the test with SN12C was > 100 µM (inactive) each time. Further, the GI50 in the test with HCT-15 is over 100 µM; in the test on HOP-92 it was > 100 µM (inactive); in the test on SK-MEL-28, > 100 µM (inactive); in the test with CCRF-CEM, > 100 µM (inactive); in the test with OVCAR-8, > 100 µM (inactive); in the test on Malme-3M, > 100 µM (inactive). The GI50 in the test on A549 is > 100 µM (inactive).
With `CCOC(=O)C(O)(NC(=O)c1ccc(F)cc1)C(F)(F)F` (configuration not stated), the GI50 in the test on SF-539, in the test with HCT-116, with KM12, in the test on OVCAR-5, in the test on UACC-62 and in the test on NCI-H522 was > 100 µM (inactive) in each case. Besides, the GI50 in the test on HL-60 was > 100 µM (inactive); with OVCAR-4 it was > 100 µM (inactive); in the test with SW-620, > 100 µM (inactive); in the test on UO-31, > 100 µM (inactive); with SN12C, > 100 µM (inactive); in the test on HCT-15, over 100 µM. Besides, the GI50 with HOP-92, with SNB-75, in the test on SK-MEL-28, in the test with CCRF-CEM, in the test on OVCAR-8 and with Malme-3M was > 100 µM (inactive) each time. The GI50 with A549 was > 100 µM (inactive).
As for `Cc1[nH]c(=O)[nH]c(=O)c1C(=O)N(CCO)Cc1ccccc1`, the GI50 in the test on SF-539, in the test on HCT-116, in the test with KM12, with OVCAR-5, with UACC-62 and in the test on NCI-H522 was > 100 µM (inactive) each time. The GI50 is > 100 µM (inactive) in the test on HL-60; 29.3 µM (inactive) in the test on OVCAR-4; > 100 µM (inactive) in the test on SW-620; > 100 µM (inactive) in the test on A498; > 100 µM (inactive) in the test on UO-31; > 100 µM (inactive) in the test on SN12C. In addition, the GI50 was over 100 µM in the test on HCT-15; 27 µM (inactive) in the test on HOP-92; > 100 µM (inactive) in the test with SK-MEL-28; > 100 µM (inactive) with CCRF-CEM; > 100 µM (inactive) in the test with Malme-3M.
As to `CCOC(C)OC1CC(n2cc(C)c(=O)[nH]c2=O)OC1CO` (configuration not stated), the GI50 in the test with SF-539, with HCT-116, with KM12, in the test on OVCAR-5, in the test on NCI-H522 and in the test on HL-60 was > 100 µM (inactive) in each case. Moreover, the GI50 is > 100 µM (inactive) in the test with OVCAR-4; > 100 µM (inactive) with SW-620; > 100 µM (inactive) with A498; > 100 µM (inactive) in the test on UO-31; > 100 µM (inactive) in the test with SN12C; over 100 µM with HCT-15. Besides, the GI50 in the test on HOP-92 is > 100 µM (inactive); with SK-MEL-28, > 100 µM (inactive); in the test with CCRF-CEM, 82.6 µM (inactive); in the test with OVCAR-8, > 100 µM (inactive); with Malme-3M, > 100 µM (inactive); in the test on A549 it was > 100 µM (inactive).

(Values after ChEMBL document CHEMBL1201862, “PubChem BioAssay data set” (2004).)
